The values below come from patent US10889610B2, “Alpha-D-galactoside inhibitors of galectins” (GALECTO BIOTECH AB, priority 2016, dated 2021).

SMILES strings stand for the structures.

galectin-1, sequence (P09382 whole entry): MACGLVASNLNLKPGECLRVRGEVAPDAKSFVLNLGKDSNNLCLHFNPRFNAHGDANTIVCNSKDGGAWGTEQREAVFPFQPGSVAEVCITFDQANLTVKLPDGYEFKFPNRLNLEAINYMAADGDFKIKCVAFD
galectin-3, sequence (P17931 whole entry): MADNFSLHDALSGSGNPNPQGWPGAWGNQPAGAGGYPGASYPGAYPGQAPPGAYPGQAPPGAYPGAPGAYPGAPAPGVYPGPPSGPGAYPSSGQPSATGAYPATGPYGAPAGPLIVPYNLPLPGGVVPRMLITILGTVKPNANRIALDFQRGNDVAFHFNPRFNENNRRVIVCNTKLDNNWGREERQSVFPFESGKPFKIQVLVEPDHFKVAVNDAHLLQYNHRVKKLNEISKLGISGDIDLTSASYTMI

One test addresses galectin-1 (Homo sapiens (Human), UniProt P09382). The test is described as follows: Fluorescence anisotropy assay, galectin-1 affinity. Format: binding. As to conditions: inhibition of galectin / fluorescein tagged saccharide probe interaction. As to the method: The affinity of Example 1-22 for galectins were determined by a fluorescence anisotropy assay where the compound was used as an inhibitor of the interaction between galectin and a fluorescein tagged saccharide probe as described Sörme, P., Kahl-Knutsson, B., Huflejt, M., Nilsson, U. J., and Leffler H. (2004) Fluorescence polarization as an analytical tool to evaluate galectin-ligand interactions. Anal. Biochem. 334: 36-47, (Sörme et al., 2004) and Monovalent interactions of Galectin-1 By Salomonsson, Emma; Larumbe, Amaia; Tejler, Johan; Tullberg, Erik; Rydberg, Hanna; Sundin, Anders; Khabut, Areej; Frejd, Torbjorn; Lobsanov, Yuri D.; Rini, James M.; et al, From Biochemistry (2010), 49(44), 9518-9532, (Salomonsson et al., 2010). […] 100 nM albumin was included as a carrier to prevent protein loss at such low concentration of galectin.
(In general: In fluorescence polarisation assays a small probe gives low polarisation when free and higher when bound to something large.)
On to `OC[C@H]1O[C@H](Sc2cc(Cl)ccn2)[C@H](O)[C@@H](n2cc(-c3cc(F)c(F)c(F)c3)nn2)[C@H]1O` [Example 7, 4-Chloro-2-pyridyl 3-deoxy-3-[4-(3,4,5-trifluorophenyl)-1H-1,2,3-triazol-1-yl]-1-thio-α-D-galactopyranoside], for which binding was put at a Kd of 6.9 µM. As to `N#Cc1ncc(S[C@H]2O[C@H](CO)[C@H](O)[C@H](n3cc(-c4cc(F)c(Cl)c(F)c4)nn3)[C@H]2O)cc1Br` [Example 12, 5-Bromo-6-cyano-3-pyridyl 3-deoxy-3-[4-(4-chloro-3,5-difluorophenyl)-1H-1,2,3-triazol-1-yl]-1-thio-α-D-galactopyranoside], binding was put at a Kd of 7 µM. Consider `N#Cc1cnc(S[C@H]2O[C@H](CO)[C@H](O)[C@H](n3cc(-c4cc(F)c(F)c(F)c4)nn3)[C@H]2O)cc1Br` [Example 1, 4-Bromo-5-cyano-2-pyridyl 3-deoxy-3-[4-(3,4,5-trifluorophenyl)-1H-1,2,3-triazol-1-yl]-1-thio-α-D-galactopyranoside], for which binding was put at a Kd of 2.6 µM.

A further test concerns the target galectin-3 (Homo sapiens (Human), UniProt P17931). The test is described as follows: Fluorescence anisotropy assay, galectin-3 affinity. The test is classed as binding. As to conditions: inhibition of galectin / fluorescein tagged saccharide probe interaction. As to the method: Anal. Biochem. 334: 36-47, (Sörme et al., 2004) and Monovalent interactions of Galectin-1 By Salomonsson, Emma; Larumbe, Amaia; Tejler, Johan; Tullberg, Erik; Rydberg, Hanna; Sundin, Anders; Khabut, Areej; Frejd, Torbjorn; Lobsanov, Yuri D.; Rini, James M.; et al, From Biochemistry (2010), 49(44), 9518-9532, (Salomonsson et al., 2010). […] 100 nM albumin was included as a carrier to prevent protein loss at such low concentration of galectin.
Consider `N#Cc1ncc(Cl)cc1S[C@H]1O[C@H](CO)[C@H](O)[C@H](n2cc(-c3cc(F)c(Cl)c(F)c3)nn2)[C@H]1O` [Example 13, 5-Chloro-2-cyano-3-pyridyl 3-deoxy-3-[4-(4-chloro-3,5-difluorophenyl)-1H-1,2,3-triazol-1-yl]-1-thio-α-D-galactopyranoside], for which the Kd (usually the free concentration of one partner at which half of the binding sites on the other are occupied at equilibrium, for simple one-to-one binding) turned out to be 0.011 µM.

Take `OC[C@H]1O[C@H](Sc2cncc(Cl)c2)[C@H](O)[C@@H](n2cc(-c3ccc(Cl)c(F)c3)nn2)[C@H]1O` [Example 19, 5-Chloro-3-pyridyl 3-deoxy-3-[4-(4-chloro-3-fluorophenyl)-1H-1,2,3-triazol-1-yl]-1-thio-α-D-galactopyranoside]: the Kd worked out at 0.034 µM.

Compound `OC[C@H]1O[C@H](Sc2ccc(Cl)c(Cl)c2)[C@H](O)[C@@H](n2cc(-c3cncc(F)c3)nn2)[C@H]1O` [Example 20, 3,4-Dichlorophenyl 3-deoxy-3-[4-(5-fluoro-3-pyridyl)-1H-1,2,3-triazol-1-yl]-1-thio-α-D-galactopyranoside] displayed a Kd of 0.75 µM. Same read-out and setting: under `N#Cc1c(F)cc(-c2cn([C@@H]3[C@@H](O)[C@@H](Sc4cncc(Cl)c4)O[C@H](CO)[C@@H]3O)nn2)cc1F` [Example 14, 5-Chloro-3-pyridyl 3-deoxy-3-[4-(4-cyano-3,5-difluorophenyl)-1H-1,2,3-triazol-1-yl]-1-thio-α-D-galactopyranoside] stands 0.18 µM. `OC[C@H]1O[C@H](Sc2cncc(Cl)c2)[C@H](O)[C@@H](n2cc(-c3cc(F)c(C(F)(F)F)c(F)c3)nn2)[C@H]1O` [Example 15, 5-Chloro-3-pyridyl 3-deoxy-3-[4-(3,5-difluoro-4-trifluoromethyl-phenyl)-1H-1,2,3-triazol-1-yl]-1-thio-α-D-galactopyranoside] gave an equilibrium dissociation constant (Kd) of 0.097 µM. `OC[C@H]1O[C@H](Sc2ccc(Cl)c(Cl)c2)[C@H](O)[C@@H](n2cc(-c3cncc(Cl)c3)nn2)[C@H]1O` [Example 22, 3,4-Dichlorophenyl 3-deoxy-3-[4-(5-chloro-3-pyridyl)-1H-1,2,3-triazol-1-yl]-1-thio-α-D-galactopyranoside]: the Kd was 0.694 µM. For the compound `OC[C@H]1O[C@H](Sc2cncc(Cl)c2)[C@H](O)[C@@H](n2cc(-c3cc(F)c(Br)c(F)c3)nn2)[C@H]1O` [Example 17, 5-Chloro-3-pyridyl 3-deoxy-3-[4-(4-bromo-3,5-difluorophenyl)-1H-1,2,3-triazol-1-yl]-1-thio-α-D-galactopyranoside], the affinity, expressed as Kd, was 0.028 µM.

The compound `N#Cc1ncc(Br)cc1S[C@H]1O[C@H](CO)[C@H](O)[C@H](n2cc(-c3cc(F)c(F)c(F)c3)nn2)[C@H]1O` [Example 6, 5-Bromo-2-cyano-3-pyridyl 3-deoxy-3-[4-(3,4,5-trifluorophenyl)-1H-1,2,3-triazol-1-yl]-1-thio-α-D-galactopyranoside] displayed a Kd of 0.022 µM. For `N#Cc1ncc(Br)cc1S[C@H]1O[C@H](CO)[C@H](O)[C@H](n2cc(-c3cc(F)c(Cl)c(F)c3)nn2)[C@H]1O` [Example 11, 5-Bromo-2-cyano-3-pyridyl 3-deoxy-3-[4-(4-chloro-3,5-difluorophenyl)-1H-1,2,3-triazol-1-yl]-1-thio-α-D-galactopyranoside], the Kd was found to be 0.011 µM.

Regarding `OC[C@H]1O[C@H](Sc2cncc(Cl)c2)[C@H](O)[C@@H](n2cc(-c3ccc(Cl)c(Cl)c3)nn2)[C@H]1O` [Example 21, 5-Chloro-3-pyridyl 3-deoxy-3-[4-(3,4-dichlorophenyl)-1H-1,2,3-triazol-1-yl]-1-thio-α-D-galactopyranoside], binding was characterised by a dissociation constant (Kd) of 0.031 µM. Take `Cc1c(F)cc(-c2cn([C@@H]3[C@@H](O)[C@@H](Sc4cncc(Cl)c4)O[C@H](CO)[C@@H]3O)nn2)cc1F` [Example 16, 5-Chloro-3-pyridyl 3-deoxy-3-[4-(3,5-difluoro-4-methylphenyl)-1H-1,2,3-triazol-1-yl]-1-thio-α-D-galactopyranoside]: binding was characterised by a dissociation constant (Kd) of 0.018 µM. Consider `OC[C@H]1O[C@H](Sc2cc(Cl)ccn2)[C@H](O)[C@@H](n2cc(-c3cc(F)c(F)c(F)c3)nn2)[C@H]1O` [Example 7, 4-Chloro-2-pyridyl 3-deoxy-3-[4-(3,4,5-trifluorophenyl)-1H-1,2,3-triazol-1-yl]-1-thio-α-D-galactopyranoside], for which the affinity, expressed as Kd, was 0.12 µM. Compound `N#Cc1ncc(S[C@H]2O[C@H](CO)[C@H](O)[C@H](n3cc(-c4cc(F)c(Cl)c(F)c4)nn3)[C@H]2O)cc1Br` [Example 12, 5-Bromo-6-cyano-3-pyridyl 3-deoxy-3-[4-(4-chloro-3,5-difluorophenyl)-1H-1,2,3-triazol-1-yl]-1-thio-α-D-galactopyranoside] yielded a dissociation constant Kd of 0.016 µM. Consider `N#Cc1cnc(S[C@H]2O[C@H](CO)[C@H](O)[C@H](n3cc(-c4cc(F)c(F)c(F)c4)nn3)[C@H]2O)cc1Cl` [Example 2, 4-Chloro-5-cyano-2-pyridyl 3-deoxy-3-[4-(3,4,5-trifluorophenyl)-1H-1,2,3-triazol-1-yl]-1-thio-α-D-galactopyranoside], for which the Kd came to 0.057 µM. With `N#Cc1ncc(S[C@H]2O[C@H](CO)[C@H](O)[C@H](n3cc(-c4cc(F)c(Cl)c(F)c4)nn3)[C@H]2O)cc1Cl` [Example 10, 5-Chloro-6-cyano-3-pyridyl 3-deoxy-3-[4-(4-chloro-3,5-difluorophenyl)-1H-1,2,3-triazol-1-yl]-1-thio-α-D-galactopyranoside], binding was put at a Kd of 0.018 µM.

`OC[C@H]1O[C@H](Sc2cncc(Cl)c2)[C@H](O)[C@@H](n2cc(-c3cc(F)c(Cl)c(F)c3)nn2)[C@H]1O` [Example 9, 5-Chloro-3-pyridyl 3-deoxy-3-[4-(4-chloro-3,5-difluorophenyl)-1H-1,2,3-triazol-1-yl]-1-thio-α-D-galactopyranoside] yielded a Kd of 0.022 µM. `OC[C@H]1O[C@H](Sc2ccnc(Cl)c2)[C@H](O)[C@@H](n2cc(-c3cc(F)c(F)c(F)c3)nn2)[C@H]1O` [Example 3, 2-Chloro-4-pyridyl 3-deoxy-3-[4-(3,4,5-trifluorophenyl)-1H-1,2,3-triazol-1-yl]-1-thio-α-D-galactopyranoside] had a Kd of 0.086 µM. Compound `N#Cc1ncc(Cl)cc1S[C@H]1O[C@H](CO)[C@H](O)[C@H](n2cc(-c3cc(F)c(F)c(F)c3)nn2)[C@H]1O` [Example 4, 5-Chloro-2-cyano-3-pyridyl 3-deoxy-3-[4-(3,4,5-trifluorophenyl)-1H-1,2,3-triazol-1-yl]-1-thio-α-D-galactopyranoside] gave an equilibrium dissociation constant (Kd) of 0.029 µM. `N#Cc1ncc(S[C@H]2O[C@H](CO)[C@H](O)[C@H](n3cc(-c4cc(F)c(F)c(F)c4)nn3)[C@H]2O)cc1Br` [Example 5, 5-Bromo-6-cyano-3-pyridyl 3-deoxy-3-[4-(3,4,5-trifluorophenyl)-1H-1,2,3-triazol-1-yl]-1-thio-α-D-galactopyranoside] had a Kd of 0.022 µM. Compound `OC[C@H]1O[C@H](Sc2cncc(Cl)c2)[C@H](O)[C@@H](n2cc(-c3cc(F)c(Cl)c(Cl)c3)nn2)[C@H]1O` [Example 18, 5-Chloro-3-pyridyl 3-deoxy-3-[4-(3,4-dichloro-5-fluorophenyl)-1H-1,2,3-triazol-1-yl]-1-thio-α-D-galactopyranoside] had a Kd of 0.027 µM. Compound `N#Cc1cnc(S[C@H]2O[C@H](CO)[C@H](O)[C@H](n3cc(-c4cc(F)c(F)c(F)c4)nn3)[C@H]2O)cc1Br` [Example 1, 4-Bromo-5-cyano-2-pyridyl 3-deoxy-3-[4-(3,4,5-trifluorophenyl)-1H-1,2,3-triazol-1-yl]-1-thio-α-D-galactopyranoside] had a Kd of 0.027 µM.

The subject of another test is galectins.
Assay: not given
As to conditions: relative to lactose, all galectins; cited from earlier work.
As to `O=C[C@H](O)[C@@H](O)[C@@H](O)[C@H](O)CO` [D-galactose], the “affinity, times lower than lactose” value is listed as 50-100 times.

The test is the same for the next values; noted with them: reviewed by Leffler 2001, Leffler et al. 2004; read-out: Kd, all galectins; cited from earlier work.
Consider `OC[C@H]1O[C@@H](O[C@H]2[C@H](O)[C@@H](O)C(O)O[C@@H]2CO)[C@H](O)[C@@H](O)[C@H]1O` (some centres unmarked) [lactose], for which the dissociation constant Kd was 500 to 1000 µM.
